What is called TGI is the concentration at which net growth stops. The term GI50 denotes the concentration at which growth is held to half of that of the control.

Values joined by “and” are separate entries in the source; they are usually repeats but may differ in a detail not shown here. Equal entries are not always repeated.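 Following 48 hours of exposure in 96-well plates, responses at five concentrations were used to interpolate endpoints linearly. The concentration for 50% growth inhibition is given as GI50. Definition used: TGI = concentration required for complete inhibition of growth.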

In PubChem BioAssay (NCI) one finds TGI and GI50 data, which are given here for 14 molecules.

What all share (test): DTP human tumour cell line panel, 48 h
For assay [1], the system named is SK-MEL-28 melanoma.
Assay [2] deals with LOX IMVI melanoma.
For assay [3], the system named is U251 CNS.
The test system of assay [4] is SNB-19 CNS.
Assay [5] has as its system MALME-3M melanoma.
Assay [6] deals with 786-0 renal.
Assay [7] deals with NCI-H460 lung.
Assay [8] relates to HCT-15 colon.
For assay [9], the system named is HT29 colon.

As to `COS(=O)c1cc(Cl)cc(Cl)c1OC(=O)CSSCC(=O)Oc1c(Cl)cc(Cl)cc1S(=O)OC` (centres undefined), the total growth inhibition concentration (TGI) in assay [1] worked out at 33.8 µM; in assay [2], 43.8 µM; in [3] it was 20.6 µM; in assay [4] it was 49.2 µM; in [5], 42.4 µM; in assay [6] it was 54.5 µM. The results for the TGI in assay [7], in assay [8] and in assay [9] were 55.5 µM, 45.1 µM and 96.9 µM, respectively.
Regarding `CNC(=O)OCc1nc(SSc2nc(COC(=O)NC)c(COC(=O)NC)n2C)n(C)c1COC(=O)NC`, the TGI in assay [1], in [2], in assay [3], in assay [4], in [5] and in [6] was > 100 µM each time. For the same molecule, the total growth inhibition concentration (TGI) in assay [7], in assay [8] and in assay [9] was > 100 µM throughout.
On to `CCOC1c2nc3ccccc3nc2-c2ccccc2N1C(C)=O` (centres undefined), for which the TGI in assay [1], in [3], in assay [4], in [6], in assay [7] and in assay [8] was > 100 µM in each case. In addition, the concentration for total growth inhibition (TGI) in [9] is > 100 µM.
`O=C(O)c1ccccc1C(=O)c1ccco1`: the concentration for total growth inhibition (TGI) in assay [1], in [2], in assay [3], in assay [4], in assay [5] and in assay [6] was > 100 µM each time. Moreover, the concentration for total growth inhibition (TGI) in assay [7], in [8] and in [9] was > 100 µM throughout.
Take `COC(=O)C1CCC(C)CC1=O` (centres undefined): the total growth inhibition concentration (TGI) in assay [1], in assay [2], in assay [3], in [4], in assay [5] and in assay [6] was > 100 µM each time. Moreover, the TGI in assay [7], in [8] and in [9] was > 100 µM in each case.
Regarding `Cc1ccc(-n2nc(C(OC3OC(CO)C(O)C(O)C3O)C(O)CO)c3nc4cc(C)c(C)cc4nc32)cc1` (centres undefined), the concentration for total growth inhibition (TGI) in assay [1], in assay [2], in assay [3], in assay [4], in [5] and in assay [6] was > 100 µM each time. The TGI in assay [7], in [8] and in assay [9] was > 100 µM throughout.
Turning to `C[n+]1cn(CC(=O)c2ccccc2)c(C(N)=O)c1N`, the TGI in assay [1], in [2], in [3], in [4], in assay [5] and in [6] was > 100 µM each time. The TGI in assay [7], in assay [8] and in [9] was > 100 µM throughout.
In the case of `CS(=O)(=O)OCCN1CCN(C(=O)c2ccc(Cl)c3c(Nc4ccc(S(=O)(=O)N=C(N)N)cc4)c4ccccc4nc23)CC1`, the concentration for total growth inhibition (TGI) in assay [1], in assay [3], in [4], in assay [5], in assay [6] and in assay [7] was > 100 µM in each case. For the same molecule, the TGI in assay [8] and in [9] was > 100 µM throughout.
With `Cc1nc2ccncc2[nH]1`, the concentration for total growth inhibition (TGI) in assay [1], in [2], in [3], in assay [4], in assay [5] and in assay [6] was > 100 µM each time. Also, the concentration for total growth inhibition (TGI) in assay [7], in assay [8] and in assay [9] was > 100 µM each time.
Regarding `COc1ccc(/C=C/C(=O)c2c(-c3ccccc3)nn(C)c(=O)c2N2CCCCC2)cc1`, the TGI in assay [1] was found to be 30.2 µM; in [2], 38.2 µM; in assay [3], 30.1 µM; in [4], 86.5 µM; in assay [6], 38.2 µM; in assay [7] it was 49.4 µM. In addition, the concentration for total growth inhibition (TGI) was > 100 µM in [8] and 35.9 µM in [9].
`OC1=CN=C(c2ccccc2)Oc2ccccc21`: the TGI in assay [1], in assay [2], in [3], in assay [4], in assay [5] and in [6] was > 100 µM each time. The total growth inhibition concentration (TGI) in assay [7], in assay [8] and in [9] was > 100 µM throughout.
On to `O=C1C2C(C(=O)N1Cc1ccccc1)N(Cc1ccccc1)C(=O)N2Cc1ccccc1` (centres undefined), for which the TGI in [1], in assay [2], in assay [3], in [4], in assay [5] and in assay [6] was > 100 µM in each case. Moreover, the TGI in assay [7], in [8] and in [9] was > 100 µM each time.
With `CCCCCCCCCCCCCC(=O)O[C@H]1CC[C@H](NC(=O)[C@H](OC)[C@H](O)[C@@H](O)[C@H](O)/C=C/C(C)C)C(=O)N(C)C1`, the 50% growth inhibitory concentration (GI50) in assay [1] was 0.00238 µM; in assay [3], < 0.0015 µM; in assay [4], 0.0093 µM; in [5], 0.00717 µM; in assay [6] it was 0.00238 µM; in assay [7], 0.00238 µM. The GI50 in assay [8] is 0.23 µM; in assay [9] it was 0.00238 µM. Besides, the concentration for total growth inhibition (TGI) was 15 µM and 3.57 µM in assay [1]; 15 µM and 3.34 µM in [2]; 15 µM and 3.06 µM in assay [3]; 15 µM and > 23.8 µM in assay [4]; 15 µM and > 23.8 µM in [5]; 15 µM and 3.18 µM in assay [6]. Moreover, the TGI was 0.371 µM and 3.01 µM in assay [7]; 15 µM and > 23.8 µM in [8]; 15 µM and 3.07 µM in [9].
In the case of `O=C1OC(=O)c2c1nc1ccccc1c2-c1ccccc1`, the TGI in assay [2], in assay [3], in assay [4], in assay [5], in assay [6] and in assay [7] was > 100 µM in each case. The total growth inhibition concentration (TGI) in [8] and in assay [9] was > 100 µM each time.
